This is an account of results in PubChem BioAssay (NCI).

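Exposure lasted 48 hours, with cells grown in 96-well plates and compounds tested at five concentrations. GI50 is the concentration that inhibits growth by half. At the TGI there is no net growth.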 Some results are limits rather than exact numbers.

Some test systems named below: COLO 205 colon; HCT-15 colon; K-562 leukemia; KM12 colon; OVCAR-3 ovarian; OVCAR-5 ovarian; SK-MEL-28 melanoma; SNB-19 CNS; SR leukemia; UACC-62 melanoma.
Assay in all cases: NCI tumour cell line growth inhibition, 48 h

Consider `COC(=O)CNC(=O)[C@@H](OC)[C@@H]1Cc2cc3cc(OC4CC(OC5CC(O)C(O)C(C)O5)C(O)C(C)O4)c(C)c(O)c3c(O)c2C(=O)[C@H]1OC1CC(OC2CC(OC3CC(C)(O)C(O)C(C)O3)C(O)C(C)O2)C(O)C(C)O1` (stereo not given in full), for which the GI50 with COLO 205 colon is 0.148 µM; with HCT-15 colon, 1.12 µM; in the assay on K-562 leukemia, 0.192 µM; in the assay on KM12 colon, 0.127 µM; with OVCAR-3 ovarian it was 0.204 µM; in the assay with OVCAR-5 ovarian, 0.184 µM. Moreover, the GI50 in the assay with SK-MEL-28 melanoma was 0.11 µM; with SNB-19 CNS, 0.154 µM; in the assay with SR leukemia, 0.0298 µM; in the assay on UACC-62 melanoma it was 0.0536 µM. In addition, the TGI in the assay on COLO 205 colon is 1.18 µM; in the assay with HCT-15 colon, > 50 µM; in the assay on K-562 leukemia it was > 50 µM; in the assay on KM12 colon, > 50 µM; with OVCAR-3 ovarian it was 4.27 µM; in the assay on OVCAR-5 ovarian, > 50 µM. The TGI with SK-MEL-28 melanoma is 1.03 µM; with SNB-19 CNS, > 50 µM; in the assay on SR leukemia, > 50 µM; in the assay with UACC-62 melanoma, 0.26 µM.
`CN(C)C(=S)N=Nc1c(O)[nH]c2ccccc12`: the GI50 in the assay with COLO 205 colon is 0.356 µM; with HCT-15 colon it was 0.455 µM; with K-562 leukemia it was 0.475 µM; with KM12 colon, 0.496 µM; with OVCAR-3 ovarian, 0.261 µM; in the assay with OVCAR-5 ovarian, 1.49 µM. The GI50 with SK-MEL-28 melanoma was 2.57 µM; in the assay on SNB-19 CNS, 0.546 µM; in the assay with SR leukemia it was 0.429 µM; in the assay with UACC-62 melanoma, 0.578 µM. In addition, the TGI was 3.56 µM in the assay with COLO 205 colon; 23.4 µM in the assay on HCT-15 colon; > 57.8 µM in the assay with K-562 leukemia; 12.9 µM in the assay on KM12 colon; 1.18 µM in the assay with OVCAR-3 ovarian; 21 µM in the assay with OVCAR-5 ovarian. Also, the TGI with SK-MEL-28 melanoma is 22.7 µM; in the assay on SNB-19 CNS, 15 µM; in the assay on SR leukemia, 9.38 µM; in the assay with UACC-62 melanoma, 4.56 µM.
On to `COc1c(N2CCN(CN3C(=O)C(=Nc4ccc(S(=O)(=O)Nc5ncccn5)cc4)c4ccccc43)C(C)C2)c(F)cc2c(=O)c(C(=O)O)cn(C3CC3)c12` (stereo not given), for which the GI50 with COLO 205 colon is 0.269 µM; with HCT-15 colon it was 20.7 µM; in the assay with K-562 leukemia it was 11.9 µM; in the assay on KM12 colon, 40.8 µM; in the assay on OVCAR-3 ovarian, > 50 µM; with OVCAR-5 ovarian, > 50 µM. For the same compound, the GI50 with SK-MEL-28 melanoma is > 50 µM; in the assay on SNB-19 CNS, 6.51 µM; with SR leukemia it was 12.5 µM; in the assay with UACC-62 melanoma it was 36.9 µM. For the same compound, the TGI in the assay on COLO 205 colon, in the assay with HCT-15 colon, in the assay on K-562 leukemia, in the assay with KM12 colon, in the assay with OVCAR-3 ovarian and in the assay with OVCAR-5 ovarian was > 50 µM each time. Besides, the TGI is > 50 µM in the assay with SK-MEL-28 melanoma, 31.3 µM in the assay on SNB-19 CNS, > 50 µM in the assay on SR leukemia and > 50 µM in the assay with UACC-62 melanoma.
For the compound `CCCCCCCCCCCCCCCC(=O)OCC1OC(n2c(O)c(N=NC(N)=S)c3ccc([N+](=O)[O-])cc32)C(OC(C)=O)C1OC(C)=O` (stereo not given), the TGI in the assay on COLO 205 colon, with HCT-15 colon, in the assay with K-562 leukemia, in the assay with KM12 colon, in the assay with OVCAR-3 ovarian and with OVCAR-5 ovarian was > 100 µM throughout. Further, the TGI in the assay on SK-MEL-28 melanoma, in the assay with SNB-19 CNS, in the assay on SR leukemia and with UACC-62 melanoma was > 100 µM each time.
For the compound `CCCCn1cnc2c(SC)ncnc21`, the TGI in the assay with COLO 205 colon, with HCT-15 colon, in the assay with K-562 leukemia, in the assay with KM12 colon, in the assay on OVCAR-3 ovarian and in the assay on OVCAR-5 ovarian was > 100 µM throughout. For the same compound, the TGI with SK-MEL-28 melanoma is > 100 µM; in the assay on SNB-19 CNS, > 100 µM; in the assay with SR leukemia, 94.4 µM; with UACC-62 melanoma, > 100 µM.
Take `COc1ccc2oc3cccc(NCCN(C)C)c3c(=O)c2c1`: the TGI stood at 19.1 µM in the assay with COLO 205 colon; 27.1 µM in the assay with HCT-15 colon; 25.3 µM in the assay with K-562 leukemia; 26.7 µM in the assay on KM12 colon; 28.5 µM in the assay on OVCAR-3 ovarian; 24.9 µM in the assay with OVCAR-5 ovarian. For the same compound, the TGI amounted to 32.9 µM in the assay on SK-MEL-28 melanoma, 28.9 µM with SNB-19 CNS, 27.1 µM in the assay with SR leukemia and 26.6 µM in the assay on UACC-62 melanoma.
As to `CC(C)CC1=[N+]=C(NC#N)N=C(CCC(=O)Nc2ccccc2[N+](=O)[O-])C1`, the TGI with COLO 205 colon, with HCT-15 colon, in the assay on K-562 leukemia, with KM12 colon, in the assay with OVCAR-3 ovarian and with OVCAR-5 ovarian was > 100 µM throughout. Further, the TGI with SK-MEL-28 melanoma, in the assay with SNB-19 CNS, in the assay on SR leukemia and in the assay with UACC-62 melanoma was > 100 µM throughout.
Turning to `Cc1cccc(C(C)C)c1NC(=O)C(=O)CC(=O)c1c(C)n([O-])c2ccccc2[n+]1=O`, the TGI in the assay on COLO 205 colon was 88.3 µM; in the assay with HCT-15 colon, 62.2 µM; in the assay on K-562 leukemia, > 100 µM; with KM12 colon, > 100 µM; in the assay with OVCAR-3 ovarian, 22 µM; in the assay on OVCAR-5 ovarian, > 100 µM. Also, the TGI with SK-MEL-28 melanoma is > 100 µM; in the assay with SNB-19 CNS, > 100 µM; with SR leukemia, 78.5 µM; with UACC-62 melanoma it was 42.4 µM.
As for `Fc1cccc(COc2ccc(Nc3ncnc4cc(-c5ccc[nH]5)sc34)cc2Cl)c1`, the GI50 in the assay with COLO 205 colon is 5.47 µM; in the assay on HCT-15 colon it was 0.264 µM; in the assay with K-562 leukemia, 10.7 µM; in the assay with KM12 colon, 0.156 µM; with OVCAR-3 ovarian, 0.151 µM; with OVCAR-5 ovarian it was 2.22 µM. Also, the GI50 in the assay with SK-MEL-28 melanoma was 7.96 µM; with SNB-19 CNS, 2.22 µM; with SR leukemia it was 13.6 µM; in the assay on UACC-62 melanoma, 5.77 µM. For the same compound, the TGI in the assay with COLO 205 colon was 17.5 µM; with HCT-15 colon it was > 13 µM; in the assay with K-562 leukemia, > 25 µM; in the assay on KM12 colon, 5.54 µM; with OVCAR-3 ovarian, 2.99 µM; with OVCAR-5 ovarian, 24.9 µM. Further, the TGI was > 25 µM in the assay on SK-MEL-28 melanoma, > 25 µM with SNB-19 CNS, > 25 µM with SR leukemia and > 22.8 µM in the assay with UACC-62 melanoma.
As for `O=C1/C(=C/c2ccc(O)cc2)COc2ccc(-c3ccccc3)cc21`, the GI50 with COLO 205 colon was 10.6 µM; in the assay on HCT-15 colon it was 2.89 µM; with K-562 leukemia it was 2.57 µM; in the assay with KM12 colon, 2.28 µM; in the assay with OVCAR-3 ovarian, 2.49 µM; in the assay with OVCAR-5 ovarian it was 17.8 µM. In addition, the GI50 in the assay on SK-MEL-28 melanoma was 10.1 µM; in the assay with SNB-19 CNS, 15.7 µM; in the assay on SR leukemia, 1.63 µM; in the assay on UACC-62 melanoma, 12.7 µM. Besides, the TGI with COLO 205 colon is 33.9 µM; in the assay on HCT-15 colon it was 12.4 µM; in the assay with K-562 leukemia, > 39.3 µM; in the assay on KM12 colon it was 7.54 µM; in the assay with OVCAR-3 ovarian, 8.14 µM; in the assay on OVCAR-5 ovarian, 33.8 µM. Besides, the TGI with SK-MEL-28 melanoma was 24.5 µM; with SNB-19 CNS it was 37.3 µM; with SR leukemia, > 28.4 µM; in the assay on UACC-62 melanoma, 25.6 µM.
Regarding `CC1OC2CC(=O)OC2C2=C1C(=O)c1c(O)c3c(c(O)c1C2=O)C1CC(O)C3(O)C(C)O1` (stereo not given), the GI50 with COLO 205 colon is 0.186 µM; in the assay on HCT-15 colon it was 0.367 µM; in the assay on K-562 leukemia it was 0.336 µM; with KM12 colon, 0.664 µM; in the assay on OVCAR-3 ovarian it was 0.207 µM; in the assay with OVCAR-5 ovarian it was 0.292 µM. The GI50 in the assay with SK-MEL-28 melanoma is 1.21 µM; in the assay on SNB-19 CNS, 1.94 µM; in the assay with SR leukemia it was 0.344 µM; in the assay with UACC-62 melanoma, 0.734 µM. In addition, the TGI in the assay with COLO 205 colon was determined as 0.453 µM; with HCT-15 colon it was 3.69 µM; with K-562 leukemia, 11.5 µM; in the assay with KM12 colon, 2.02 µM; in the assay with OVCAR-3 ovarian it was 0.629 µM; with OVCAR-5 ovarian, 0.879 µM. Besides, the TGI with SK-MEL-28 melanoma was determined as 2.74 µM; in the assay with SNB-19 CNS it was 5.84 µM; in the assay with SR leukemia, 5.86 µM; with UACC-62 melanoma it was 2.13 µM.
With `CC(C)NC(=O)OCCS(=O)c1c(Cl)c(Cl)nn1C` (stereo not given), the TGI is 44 µM in the assay with COLO 205 colon; 43.8 µM with HCT-15 colon; > 100 µM in the assay with K-562 leukemia; > 100 µM in the assay with KM12 colon; > 100 µM in the assay with OVCAR-3 ovarian; > 100 µM with OVCAR-5 ovarian. Moreover, the TGI is > 100 µM with SK-MEL-28 melanoma, > 100 µM with SNB-19 CNS, > 100 µM in the assay with SR leukemia and 67.7 µM in the assay on UACC-62 melanoma.
`Cn1ccnc1C(=O)/C=C/c1ccc(CC(=O)Nc2ccccc2)cc1`: the GI50 with COLO 205 colon is 3.77 µM; with HCT-15 colon, 1.25 µM; in the assay on K-562 leukemia it was 1.07 µM; in the assay on KM12 colon it was 3.39 µM; in the assay with OVCAR-3 ovarian it was 1.87 µM; with OVCAR-5 ovarian it was 4.19 µM. The GI50 in the assay with SK-MEL-28 melanoma is 5.69 µM; with SNB-19 CNS it was 1.9 µM; in the assay on SR leukemia, 1.16 µM; in the assay with UACC-62 melanoma, 4.13 µM. Moreover, the TGI with COLO 205 colon was 9.39 µM; in the assay on HCT-15 colon, 8.77 µM; in the assay on K-562 leukemia, > 25 µM; with KM12 colon it was 8.17 µM; in the assay on OVCAR-3 ovarian it was 5.37 µM; with OVCAR-5 ovarian, 14.7 µM. The TGI came to 17.8 µM in the assay with SK-MEL-28 melanoma, 11.9 µM with SNB-19 CNS, 18.9 µM with SR leukemia and 9.95 µM in the assay on UACC-62 melanoma.
